Results as given in the supplement of paper PMC8988213.
Structures can show the parent of a compound that is named as a salt.

What was measured:
[1] = test system: ID188 patient-derived PDAC 2D line (pre-FOLFIRINOX); assay: normalised area under dose-response curve (viability relative to DMSO, 7 doses up to 10 µM) (fraction (AUC)); higher = less sensitive (more viability retained); details: 72 h; top dose: 10 µM
How it was run: (§1)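 A robot plated 1,500–3,000 cells/well of patient-derived 2D PDAC cells, outgrown from organoids, into 96-well plates, followed by overnight incubation at 37°C, 5% CO2. The cells were exposed for 72 h to SelleckChem library compounds at seven 3-fold-diluted concentrations up to 10 µM, and CellTiter-Glo luminescence was read after 10 min. Area under the dose-response curve came from the GRmetrics R package, with viability normalised to control wells.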

[2] = test system: ID211 patient-derived PDAC 2D line (post-FOLFIRINOX); assay: as above; details: 72 h; top dose: 10 µM
How it was run: as §1

How did the “normalised area under dose-response curve” value (“normalised area” below) [1] turn out when `Clc1ccc(Nc2nnc(Cc3ccncc3)c3ccccc23)cc1` [Vatalanib (PTK787) 2HCl] was run?
Its value is 0.926.

What about the “normalised area” value [2] of the same compound?
Its value is 0.894.

`FC(F)(F)c1ccc(/C=C/c2nc(COc3ccc(CCCCn4ccnn4)cc3)co2)cc1` [Mubritinib (TAK 165)] was tested. Which “normalised area” value [1] did it give?
Its value is 0.735.

And the “normalised area” value [2]?
Its value is 0.784.

For `CC(C)N(CCCNC(=O)Nc1ccc(C(C)(C)C)cc1)C[C@H]1O[C@@H](n2cc(Br)c3c(N)ncnc32)[C@H](O)[C@@H]1O` [SGC 0946], which “normalised area” value [1] is on record?
The value was 0.94.

What about the “normalised area” value [2] of the same compound?
Its value is 0.809.

How did the “normalised area” value [1] turn out when `CS(=O)(=O)OCCCCOS(C)(=O)=O` [Busulfan] was run?
Its value is 0.948.

What about the “normalised area” value [2] of the same compound?
The value was 0.814.

`Nc1ccc(S(=O)(=O)NC(=O)c2ccccc2)cc1` [Sulfabenzamide] was tested. Which “normalised area” value [1] did it give?
The value was 0.926.

And the “normalised area” value [2]?
The value was 0.747.

Which results are given for `O=C(Nc1cccc2cccnc12)c1ccc(N2C(=O)[C@@H]3[C@H](C2=O)[C@@H]2C=C[C@H]3C2)cc1` [IWR-1-endo]?
normalised area under dose-response curve [1]: 0.938; normalised area under dose-response curve [2]: 0.808

How did the “normalised area” value [1] turn out when `Cc1cc(OCc2nnc(SC3CCCC3)n2-c2cccnc2)ccc1-c1ccc(S(C)(=O)=O)cc1` [NMS-873] was run?
The value was 0.8.

And the “normalised area” value [2]?
Its value is 0.406.

Which results are given for `CCNC(=O)C[C@@H]1N=C(c2ccc(Cl)cc2)c2cc(OC)ccc2-n2c(C)nnc21` [I-BET-762]?
normalised area under dose-response curve [1]: 0.888; normalised area under dose-response curve [2]: 0.777

With `CCCOc1ccn2c(C(C)=O)cc(-c3ccccc3S(C)(=O)=O)c2c1` [GSK2801] as the compound, how does the “normalised area” value [1] read?
Its value is 0.964.

And the “normalised area” value [2]?
The value was 0.782.

Which “normalised area” value [1] does the source give for `CC(C)(C)S(=O)(=O)c1ccc2nccc(Nc3n[nH]c4ccc(F)cc34)c2c1` [GSK583] here?
Its value is 0.9.

And the “normalised area” value [2]?
Its value is 0.893.

With `Nc1ccccc1NC(=O)c1ccc(CNC(=O)OCc2cccnc2)cc1` [Entinostat (MS-275)] as the compound, how does the “normalised area” value [1] read?
Its value is 0.835.

And the “normalised area” value [2]?
The value was 0.73.

Which “normalised area” value [1] does the source give for `Cc1cc(SCc2sc(-c3ccc(C(F)(F)F)c(F)c3)nc2C)ccc1OCC(=O)O` [GW0742] here?
The value was 0.763.

What about the “normalised area” value [2] of the same compound?
The value was 0.93.

With `COc1ccc(S(=O)(=O)Nc2cccnc2Nc2ccc(O)cc2)cc1` [ABT-751 (E7010)] as the compound, how does the “normalised area” value [1] read?
The value was 0.794.

What about the “normalised area” value [2] of the same compound?
Its value is 0.644.

What does the source list for `Cn1cncc1[C@@](N)(c1ccc(Cl)cc1)c1ccc2c(c1)c(-c1cccc(Cl)c1)cc(=O)n2C` [Tipifarnib]?
normalised area under dose-response curve [1]: 0.913; normalised area under dose-response curve [2]: 0.832

How did the “normalised area” value [1] turn out when `COc1nc(OCc2cccc(-c3ccccc3)c2C)ccc1CNCCNC(C)=O` [BMS202 (PD-1PD-L1 inhibitor 2)] was run?
The value was 0.99.

And the “normalised area” value [2]?
The value was 0.905.

For `C[C@H](NC(=O)CCC(F)(F)F)C(=O)N[C@@H]1C(=O)N(CCO)c2ncccc2-c2ccccc21`, which “normalised area” value [1] is on record?
The value was 0.939.

What about the “normalised area” value [2] of the same compound?
The value was 0.744.

What does the source list for `COc1cc(-n2c(=S)[nH]c3ccccc3c2=O)c(Cl)cc1Cl` [Mdivi-1]?
normalised area under dose-response curve [1]: 0.885; normalised area under dose-response curve [2]: 0.957

`Cc1nn(C)c2c1C(c1ccc(C(F)(F)F)cc1)C(C#N)=C(N)O2` (stereo not given) [BQU57] was tested. Which “normalised area” value [1] did it give?
Its value is 0.933.

What about the “normalised area” value [2] of the same compound?
Its value is 0.869.

For `Cc1cc(C)c(CNC(=O)c2cc(-c3ccc(N4CCN(C)CC4)nc3)cc3c2c(C)cn3C(C)C)c(=O)[nH]1` [GSK503], which “normalised area” value [1] is on record?
The value was 0.992.

What about the “normalised area” value [2] of the same compound?
Its value is 0.891.

`COc1ccc(C2=N[C@@H](c3ccc(Cl)cc3)[C@@H](c3ccc(Cl)cc3)N2C(=O)N2CCNC(=O)C2)c(OC(C)C)c1` [Nutlin-3] was tested. Which “normalised area” value [1] did it give?
Its value is 0.97.

What about the “normalised area” value [2] of the same compound?
Its value is 0.82.

For `O=C(O)Cc1cccc(OCCCN(Cc2cccc(C(F)(F)F)c2Cl)CC(c2ccccc2)c2ccccc2)c1` [GW3965 HCl], which “normalised area” value [1] is on record?
The value was 0.923.

What about the “normalised area” value [2] of the same compound?
The value was 0.825.

How did the “normalised area” value [1] turn out when `COc1cc2c(c(OC)c1OC)-c1ccc(OC)c(=O)cc1[C@@H](NC(C)=O)CC2` [Colchicine] was run?
Its value is 0.562.

And the “normalised area” value [2]?
The value was 0.589.

What does the source list for `O=C(O)c1ccc2c(c1)nc(Nc1cccc(Cl)c1)c1ccncc12` [Silmitasertib (CX-4945)]?
normalised area under dose-response curve [1]: 0.924; normalised area under dose-response curve [2]: 0.88

What does the source list for `COC[C@H](NC(=O)c1cnc(C)s1)C(=O)N[C@@H](COC)C(=O)N[C@@H](Cc1ccccc1)C(=O)[C@@]1(C)CO1` [Oprozomib (ONX 0912)]?
normalised area under dose-response curve [1]: 0.427; normalised area under dose-response curve [2]: 0.333

How did the “normalised area” value [1] turn out when `Cc1cc([C@@H](C)Nc2ccccc2C(=O)O)c2nc(N3CCOCC3)cc(=O)n2c1` [AZD6482] was run?
The value was 0.862.

And the “normalised area” value [2]?
The value was 0.835.

Which “normalised area” value [1] does the source give for `COc1cc2c(Oc3ccc4[nH]c(C)cc4c3F)ncnc2cc1OCCCN1CCCC1` [Cediranib (AZD2171)] here?
The value was 0.927.

And the “normalised area” value [2]?
Its value is 0.83.

With `O=C(Nc1cccc(Nc2ncc(Br)c(NCCc3cnc[nH]3)n2)c1)N1CCCC1` [BX-912] as the compound, how does the “normalised area” value [1] read?
Its value is 0.595.

And the “normalised area” value [2]?
Its value is 0.893.

What does the source list for `NC(=O)[C@@H](CCC(F)(F)F)N(Cc1ccc(-c2ncon2)cc1F)S(=O)(=O)c1ccc(Cl)cc1`?
normalised area under dose-response curve [1]: 0.882; normalised area under dose-response curve [2]: 0.77

`C#Cc1cccc(Nc2ncnc3cc(OC)c(OCCCCCCC(=O)NO)cc23)c1` [CUDC-101] was tested. Which “normalised area” value [1] did it give?
Its value is 0.827.

And the “normalised area” value [2]?
Its value is 0.765.

What does the source list for `CNc1nc(-c2ccc3c(N)n[nH]c3c2)cc(N2C[C@@H](C(=O)NC3CCCCC3)CC[C@H]2C)n1`?
normalised area under dose-response curve [1]: 0.869; normalised area under dose-response curve [2]: 0.71

For `CCc1cc2c(cc1N1CCC(N3CCOCC3)CC1)C(C)(C)c1[nH]c3cc(C#N)ccc3c1C2=O` [Alectinib hydrochloride], which “normalised area” value [1] is on record?
Its value is 0.779.

What about the “normalised area” value [2] of the same compound?
The value was 0.789.

`Cc1cccc(CC(=O)N2CCc3c2ccc(-c2cn(C)c4ncnc(N)c24)c3F)n1` was tested. Which “normalised area” value [1] did it give?
Its value is 0.87.

And the “normalised area” value [2]?
The value was 0.959.

Which results are given for `CC1(C)CCC(CN2CCN(c3ccc(C(=O)NS(=O)(=O)c4ccc(NCC5CCOCC5)c([N+](=O)[O-])c4)c(Oc4cnc5[nH]ccc5c4)c3)CC2)=C(c2ccc(Cl)cc2)C1` [Venetoclax (ABT-199, GDC-0199)]?
normalised area under dose-response curve [1]: 0.928; normalised area under dose-response curve [2]: 0.887

Which “normalised area” value [1] does the source give for `CNc1cc(-c2cccc(Cl)c2Cl)nc(N)n1` [TH287] here?
The value was 0.896.

And the “normalised area” value [2]?
Its value is 0.901.

For `CC(=O)N1CCC[C@H]1C(=O)N[C@@H](Cc1cnc[nH]1)C(=O)N[C@@H](CO)C(=O)N[C@@H](CS)C(=O)N[C@@H](CC(N)=O)C(N)=O` [ATN-161 (Ac-PHSCN-NH2)], which “normalised area” value [1] is on record?
Its value is 1.

What about the “normalised area” value [2] of the same compound?
The value was 0.858.

With `CCC(C)SSc1ncc[nH]1` (stereo not given) [PX-12] as the compound, how does the “normalised area” value [1] read?
The value was 0.985.

And the “normalised area” value [2]?
The value was 0.903.

`O=C(CSc1nc2c(c(=O)n1-c1ccccc1)SCC2)Nc1ccc(-c2ccccc2)cn1` [IWP-L6] was tested. Which “normalised area” value [1] did it give?
Its value is 0.968.

And the “normalised area” value [2]?
Its value is 0.804.

Which results are given for `C[C@H](NC(=O)Cc1cc(F)cc(F)c1)C(=O)N[C@@H]1C(=O)N(C)c2ccccc2-c2ccccc21`?
normalised area under dose-response curve [1]: 0.89; normalised area under dose-response curve [2]: 0.782

Which “normalised area” value [1] does the source give for `Cc1cc2c(C(N)=O)cccc2n1-c1nc2c(c(NCc3ccccc3)n1)COCC2` [CB-5083] here?
Its value is 1.01.

What about the “normalised area” value [2] of the same compound?
Its value is 0.643.

With `CCOc1ccn(-c2ccc(F)cc2)c(=O)c1C(=O)Nc1ccc(Oc2ccnc(N)c2Cl)c(F)c1` as the compound, how does the “normalised area” value [1] read?
The value was 0.882.

What about the “normalised area” value [2] of the same compound?
Its value is 0.945.

`Cc1ccc(S(=O)(=O)Cc2nc(-c3ccc(C(=O)NCc4cccnc4)cc3)oc2C)cc1` was tested. Which “normalised area” value [1] did it give?
Its value is 0.358.

And the “normalised area” value [2]?
Its value is 0.275.

For `CC1(N)CCN(c2cnc(-c3cccc(Cl)c3Cl)c(N)n2)CC1` [SHP099 dihydrochloride], which “normalised area” value [1] is on record?
The value was 0.963.

And the “normalised area” value [2]?
Its value is 0.91.

Which results are given for `Cc1ccc(F)c(NC(=O)Nc2ccc(-c3cccc4[nH]nc(N)c34)cc2)c1` [Linifanib (ABT-869)]?
normalised area under dose-response curve [1]: 0.889; normalised area under dose-response curve [2]: 0.814

What does the source list for `Cc1[nH]nc(C(F)(F)F)c1Cc1sc2c(c1C(=O)N1C[C@](C)(O)CO1)c(=O)n(C)c(=O)n2C(C)C` [AZD3965]?
normalised area under dose-response curve [1]: 0.937; normalised area under dose-response curve [2]: 0.89

How did the “normalised area” value [1] turn out when `CN1CCN(c2ccc(-c3ccncc3-c3cc(F)c(O)c(F)c3)cc2)CC1` [LJH685] was run?
Its value is 0.943.

And the “normalised area” value [2]?
The value was 0.83.
